What was measured:
[1] = molecular target: Mcl-1 protein (residues 171-323) (Homo sapiens (Human), UniProt Q07820); assay: Inhibition of Mcl-1 by fluorescence polarization (FP) competitive binding assay with FAM-Bid tracer; conditions: 2 nM FAM-Bid, 20 nM Mcl-1, 30 min, read-out: Mc1-1 (FP)
Description: Inhibition of Mcl-1 by fluorescence polarization (FP) assay.
The method used a fluorescein labelled peptide (FAM-Bid) which binds to the Mcl-1 protein leading to an increased anisotropy measured in milli-polarization (mP) values using a plate reader.
A 10-points serial dilution of each compound was prepared in DMSO and 5 μL solution was transferred into flat bottomed, 96-well back plate (final DMSO concentration 5%). 120 μL of Buffer (PBS, 0.01% BGG (Sigma Cat. #SRE0011), 0.01% Triton X-100), containing the Fluorescein labelled peptide (Final concentration 2 nM) and Mcl-1 protein (final concentration 20 nM) was then added. […] 10-points dose response curves were plotted with GraphPad software using Sigmoidal Dose-Response Model and the IC50 values were determined by nonlinear regression fitting of the competition curves.

OPM-2 cells = assay: Cell viability assay (OPM-2 cells), CCK-8; type: cell-based; conditions: 5% FBS
Description: Cell Viability Assay (OPM-2 cells)
OPM-2 cells were obtained from Deutsche Sammlung von Mikroorganismen and Zellkulturen GmbH (DSMZ). Cells were maintained in the recommended culture medium with 10% FBS at 37° C. and an atmosphere of 5% CO2.
The effect of representative Compounds of the Disclosure on cell viability was determined using Cell Counting Kit-8 (CCK-8) assay (Shanghai Life iLab Bio Technology) according to the manufacturer's instructions. Each tested compound was serially diluted in culture medium, 100 μL of the compound dilution was added into 96-well plates. 100 μL of an OPM-2 cell suspension (20000 cells/well) in culture medium were seeded into the corresponding well of the plate and the cells were incubated at 37° C. in an atmosphere of 5% CO2 for 24 hours. In the next day, 20 μL of CCK-8 solution was added to each well of the plate and incubated for 4 hours.
The plates were read at 450 nm on the microplate spectrophotometer (SpectraMax plus 384, Molecular devices). The readings were normalized to the vehicle cells, and the IC50 was calculated by nonlinear regression analysis using GraphPad Prism 6 software.

NCI-H929 cells = assay: Cell viability assay (NCI-H929 cells), CCK-8; type: cell-based; conditions: 5% FBS
Description: Cell Viability Assay (NCI-H929 cells)
NCI-H929 cells were obtained from American Type Culture Collection (ATCC). Cells were maintained in the recommended culture medium (RPMI 1640) with 10% FBS and 0.05 mM BME at 37° C. and an atmosphere of 5% CO2.
The effect of Compounds on cell viability was determined using Cell Counting Kit-8 (CCK-8) assay according to the manufacturer's instructions. 95 μL of NCI-H929 cell suspension (20000 cells/well) in culture medium were seeded into 96-well plates and cultured 4 hrs. Each tested compound was serially diluted in DMSO, then 5 μL of the compound or DMSO was diluted in 95 μL medium once more. At last, 5 μL of the compound dilution was added to the corresponding well of the cell plate. After the addition of the tested compound, the cells were incubated at 37° C. in an atmosphere of 5% CO2 for 24 hrs. At the end, 10 μL of CCK-8 solution was added to each well of the plate and incubated for 1-4 hours. The plates were read at 450 nm on the microplate reader (BioTek Synergy 1MF). The readings were normalized to the vehicle cells, and the IC50 was calculated by nonlinear regression analysis using GraphPad Prism 6 software.

[2] = Microsome clearance assay, mouse; type: in vitro ADME; conditions: 0.5 mg/ml protein, 1 mM NADPH, 60 minutes; for microsomal CLint at 5 μM: male, CD-1, mouse, pooled liver microsomes, pH 7.4, mouse liver microsomes, read-out: Mouse Liver Microsome Clint (μL/min/mg protein)
Description: (§1) Representative Compounds of the Disclosure were tested in a microsome clearance assay. Pooled liver microsomes (20 mg/ml) from human, male Wister rat, and male CD-1 mouse were obtained from BD Bioscience (Franklin Lakes, N.J. USA). Incubation reaction mixtures contained a final concentration of 0.1M sodium phosphate buffer (pH 7.4), 0.5 mg/ml microsomal protein, 5 μM of test sample and 1 mM NADPH in a total volume of 400 μl. The incubations were done for 60 minutes and 300 μl of the mixtures was transferred to 150 μl of ice cold methanol to terminate reactions. After vortexes for 3 minutes and centrifuged at 4000 rpm at 4° C. for 10 minutes, the clear supernatant was used directly for analysis. The samples were analyzed by Applied Biosystems API 3200 Q TRAP LC/MS/MS system using electrospray ionization mode.

[3] = Microsome clearance assay, rat; type: in vitro ADME; conditions: 0.5 mg/ml protein, 1 mM NADPH, 60 minutes; for microsomal CLint at 5 μM: male, Wister, rat, pooled liver microsomes, pH 7.4, rat liver microsomes, read-out: Rat Liver Microsome Clint (μL/min/mg protein)
Description: as §1

[4] = Microsome clearance assay, human; type: in vitro ADME; conditions: 0.5 mg/ml protein, 1 mM NADPH, 60 minutes; for microsomal CLint at 5 μM: human, pooled liver microsomes, pH 7.4, human liver microsomes, read-out: Human Liver Microsome Clint (μL/min/mg protein)
Description: as §1

Mcl-1 protein (residues 171-323), sequence (Q07820 171-323): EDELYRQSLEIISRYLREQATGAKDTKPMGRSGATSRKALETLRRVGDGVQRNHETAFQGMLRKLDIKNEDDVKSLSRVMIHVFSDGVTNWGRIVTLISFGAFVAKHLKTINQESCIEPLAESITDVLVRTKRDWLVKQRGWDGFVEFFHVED

Row | IC50 [1] [nM] | IC50 (NCI-H929 cells; 24 hrs) [nM] | Mouse Liver Microsome Clint (μL/min/mg protein) ([2]; mouse liver microsomes, 5 μM) | Rat Liver Microsome Clint (μL/min/mg protein) ([3]; rat liver microsomes, 5 μM) | Human Liver Microsome Clint (μL/min/mg protein) ([4]; human liver microsomes, 5 μM) | IC50 (NCI-H929 cells; Homo sapiens, NCI-H929, 24 h) [nM] | microsomal CLint at 5 μM [2] [µL/min/mg] | microsomal CLint at 5 μM [3] [µL/min/mg] | microsomal CLint at 5 μM [4] [µL/min/mg] | Compound | IC50 (OPM-2 cells; 24 hours) [nM] | IC50 (OPM-2 cells; Homo sapiens, OPM-2, 24 h) [nM]
1 | 5 | 107 | 16.0 | 8.6 | <2.8 | – | – | – | – | Cc1c(C(=O)O)n2c3ccc(Cl)c(c13)-c1c(nn(C)c1C)CN(S(C)(=O)=O)Cc1cc(n(C)n1)CSc1cc(c3ccc(F)cc3c1)OCCC2 (atropisomer, axis not shown) [Cpd. No. 33, (R)-(Z)-1^5-chloro-9^6-fluoro-1^3,2^1,2^5, 6^1-tetramethyl-4-(methylsulfonyl)-1^1H,2^1H, 6′H-10-oxa-8-thia-4-aza-1(4,1)-indola-2(4,3),6(3,5)-dipyrazola-9(3,1)-naphthalenacyclotridecaphane-1^2-carboxylic acid] | 190 | –
2 | 8 | – | – | – | – | 300 | 43.4 | 21.6 | 8 | Cc1c(C(=O)O)n2c3ccc(Cl)c(c13)-c1c(nn(C)c1C)CN(S(C)(=O)=O)Cc1cc(n(C)n1)CSc1cc(c3ccccc3c1)OCCC2 [Cpd. No. 46, (Z)-1^5-chloro-1^3,2^1,2^5,6^1-tetramethyl-4-(methylsulfonyl)-1^11-1,2^1H,6^1H-10-oxa-8-thia-4-aza-1(4,1)-indola-2(4,3),6(3,5)-dipyrazola-9(3,1)-naphthalenacyclotridecaphane-1^2-carboxylic acid] | – | 637
3 | 35 | – | – | – | – | 621 | 54.6 | 42 | 21.4 | Cc1c(C(=O)O)n2c3ccc(Cl)c(c13)-c1c(nn3c1COCC3)CN(S(=O)(=O)c1ccccc1)Cc1cc(n(C)n1)CSc1cc(c3ccc(F)cc3c1)OCCC2 [Cpd. No. 29, (Z)-1^5-chloro-9^6-fluoro-1^3, 6^1-di methyl-4-(phenylsulfonyl)-26,27-dihydro-1^1H,2^4H,6^1H-10-oxa-8-thia-4-aza-2(3,2)-pyrazolo[5,1-c][1,4]oxazina-1(4,1)-indola-6(3,5)-pyrazola-9(3,1)-naphthalenacyclotridecaphane-1^2-carboxylic acid] | – | 1900
4 | – | – | – | – | – | 77 | 29.2 | 46.6 | 19.4 | Cc1c(C(=O)O)n2c3ccc(Cl)c(c13)-c1c(nn(C)c1C)CSCc1cc(n(C(C)C)n1)CSc1cc(c3ccc(F)cc3c1)OCCC2 [Cpd. No. 17, (Z)-1^5-chloro-9^6-fluoro-6^1-isopropyl-1^3,2^1,2^5-trimethyl-1^1H,2^1H,6^1H-10-oxa-4,8-dithia-1(4,1)-indola-2(4,3),6(3,5)-dipyrazola-9(3,1)-naphthalenacyclotridecaphane-1^2-carboxylic acid] | – | 94
5 | 7 | – | – | – | – | 165 | 49 | 34.4 | 35.2 | Cc1c(C(=O)O)n2c3ccc(Cl)c(c13)-c1c(nn3c1COCC3)CSCc1cc(n(C)n1)CSc1cc(c3ccccc3c1)OCCC2 [Cpd. No. 1, (Z)-1^5-chloro-1^3,6^1-dimethyl-2^6,2^7-dihydro-1^1H,2^4H,6^1H-10-oxa-4,8-dithia-2(3,2)-pyrazolo[5,1-c][1,4]oxazina-1(4,1)-indola-6(3,5)-pyrazola-9(3,1)-naphthalenacyclotridecaphane-1^2-carboxylic acid] | – | 1540
6 | 5 | 204 | – | – | – | – | – | – | – | (Z)-1^5-chloro-9^6-fluoro-1^3,2^1,2^3,6^1-tetramehtyl-4-(methylsulfonyl)-1^1H,2^1H,6^1H-10-oxa-8-thia-4-aza-1(4,1)-indola-2(4,5),6(3,5)-dipyrazola-9(3,1)- naphthalenacyclotridecaphane-1^2-carboxylic acid [Cpd. No. 49] | 308 | –
7 | 22 | – | – | – | – | 768 | – | – | – | Cc1c(C(=O)O)n2c3ccc(Cl)c(c13)-c1c(nn(C)c1C)CN(C(=O)c1ccccn1)Cc1cc(n(C)n1)CSc1cc(c3ccc(F)cc3c1)OCCC2 [Cpd. No. 42, (Z)-1^5-chloro-9^6-fluoro-1^3,2^1,2^5,6^1-tetramethyl-4-picolinoyl-1^1H,2^1H,6^1H-10-oxa-8-thia-4-aza-1 (4,1)-indola-2(4,3),6(3,5)-dipyrazola-9(3,1)-naphthalenacyclotridecaphane-1^2-carboxylic acid] | – | 1510
8 | 27 | – | – | – | – | 673 | – | – | – | Cc1c(C(=O)O)n2c3ccc(Cl)c(c13)-c1c(nn(C)c1C)CN(CC(=O)N(C)C)Cc1cc(n(C)n1)CSc1cc(c3ccc(F)cc3c1)OCCC2 [Cpd. No. 54, (Z)-1^5-chloro-4-(2-(dimethylamino)-2-oxoethyl)-9^6-fluoro-1^3,2^1,2^5, 6^1--tetramethyl-1^1H,2^1H,6^1H-10-oxa-8-thia-4-aza-1(4,1)-indola-2(4,3),6(3,5)-dipyrazola-9(3,1)-naphthalenacyclotridecaphane-1^2-carboxylic acid] | – | 3480
9 | 10 | – | – | – | – | 444 | – | – | – | Cc1c2c(nn1C)CSCc1cc(n(C)n1)CSc1cc(c3ccc(F)cc3c1)OCCCn1c(C(=O)O)c(F)c3c-2c(Cl)ccc31 [Cpd. No. 19, (Z)-1^5-chloro-1^3,9^6-difluoro-2^1,2^5,6^1-trimethyl-1^1H,2^1H,6^1H-10-oxa-4,8-dithia-1(4,1)-indola-2(4,3),6(3,5)-dipyrazola-9(3,1)-naphthalenacyclotridecaphane-1^2-carboxylic acid] | – | 449
10 | 13 | – | – | – | – | 159 | – | – | – | Cc1c(C(=O)O)n2c3ccc(Cl)c(c13)-c1c(nn(C)c1C)CN(S(=O)(=O)N(C)C)Cc1cc(n(C)n1)CSc1cc(c3ccc(F)cc3c1)OCCC2 [Cpd. No. 40, (Z)-1^5-chloro-9^6-fluoro-1^3,2^1,2^5,6^1-tetramethyl-4-(N, N-dimethylsulfamoyl)-1^1H,2^1H,6^1H-10-oxa-8-thia-4-aza-1 (4,1)-indola-2(4,3),6(3,5)-dipyrazola-9(3,1)-naphthalenacyclotridecaphane-1^2-carboxylic acid] | – | 190
11 | 23 | – | – | – | – | 780 | – | – | – | Cc1c(C(=O)O)n2c3ccc(Cl)c(c13)-c1c(nn(C)c1C)CN(C(=O)c1nccn1C)Cc1cc(n(C)n1)CSc1cc(c3ccc(F)cc3c1)OCCC2 [Cpd. No. 44, (Z)-1^5-chloro-9^6-fluoro-1^3,2^1,2^5,6^1-tetramethyl-4-(1-methyl-1H-imidazole-2-carbonyl)-1^1H,2^1H,6^1H-10-oxa-8-thia-4-aza-1(4,1)-indola-2(4,3),6(3,5)-dipyrazola-9(3,1)-naphthalenacyclotridecaphane-1^2-carboxylic acid] | – | 1160

From patent US11691989B2, “Macrocyclic indoles as Mcl-1 inhibitors” (ASCENTAGE PHARMA (SUZHOU) CO., LTD., priority 2018, dated 2023)
